For this assay, the system named is Malassezia pachydermatis. Kind of assay: MIC, microdilution broth method. The class given is cell-based. Here is the method: Six clinical isolates from dog skin (n=5) and cats (n=1) which had been sent to EnvA (mycology laboratory of BioPôle Alfort) for mycological culture. The isolates, collected in March 2016, were identified as belonging to the species Malassezia pachydermatis. They were maintained by regular transplanting on medium of Sabouraud. Isolates are subcultured 2 to 3 days prior to testing sensitivity.
A stock solution of Oxyclozanide at 1600 μg/mL is prepared in DMSO. The stock solution is then diluted in DMSO to obtain a concentration range of 3.125 μg/ml to 800 μg/ml. A 1/50 dilution of this range and of the stock solution is then carried out in ultrapure water so as to obtain a concentration range of 0.0625 μg/ml to 32 μg/ml and containing 2% of DMSO. 50 μl of these solutions are deposited in wells of a microplate and then 50 μl of inoculum calibrated at 10^6 CFU/ml in Sabouraud/Tween 40 (2%) are added. A range of tested concentrations ranges from 0.0312 μg/mL to 16 μg/mL. The final concentration of DMSO in contact with the inoculum is 1%. The same dilution and seeding protocol was followed with a stock solution of amphotericin B at 1600 μg/ml. A “placebo” (or yeast growth control) column is systematically included in the plates. The plates are incubated at 37 ° C. The reading is done at 24 and 48 h. Several trials were conducted and protocol adjustments were required. In particular, the concentration of the inoculum had to be reduced for antifungal activity to be observed.
A general note: In broth dilution the organism is exposed to a series of concentrations in liquid medium.

The MIC is the lowest concentration that inhibits growth of the organism. The low end stands for greater potency, the high end for weaker potency.

SMILES strings stand for the structures. ≈ marks a conversion by molar mass, not a printed value.

Take `C[C@@H]1[C@H](O)[C@@H](C)/C=C/C=C/C=C/C=C/C=C/C=C/C=C/[C@H](O[C@@H]2O[C@H](C)[C@@H](O)[C@H](N)[C@@H]2O)C[C@@H]2O[C@](O)(C[C@@H](O)C[C@@H](O)[C@H](O)CC[C@@H](O)C[C@@H](O)CC(=O)O[C@H]1C)C[C@H](O)[C@H]2C(=O)O` [Amphoterine B, amphotericin B]: the MIC is, setting by setting: (Isolate 1, Assay 1, 10^6 CFU/ml) 2 µg/mL (≈ 2.16 µM); (Isolate 1, Assay 2, 10^6 CFU/ml) 4 µg/mL (≈ 4.33 µM); (Isolate 2, Assay 1, 10^6 CFU/ml) 2 µg/mL (≈ 2.16 µM); (Isolate 2, Assay 2, 10^6 CFU/ml) 2 µg/mL (≈ 2.16 µM); (Isolate 3, Assay 1, 10^6 CFU/ml) 4 µg/mL (≈ 4.33 µM); (Isolate 3, Assay 2, 10^6 CFU/ml) 8 µg/mL (≈ 8.66 µM). For the same molecule, the MIC by setting is: (Isolate 4, Assay 1, 10^6 CFU/ml) 4 µg/mL (≈ 4.33 µM); (Isolate 4, Assay 2, 10^6 CFU/ml) 4 µg/mL (≈ 4.33 µM); (Isolate 5, Assay 1, 10^6 CFU/ml) 4 µg/mL (≈ 4.33 µM); (Isolate 5, Assay 2, 10^6 CFU/ml) 4 µg/mL (≈ 4.33 µM); (Isolate 6, Assay 1, 10^6 CFU/ml) 4 µg/mL (≈ 4.33 µM); (Isolate 6, Assay 2, 10^6 CFU/ml) 8 µg/mL (≈ 8.66 µM).
